What was measured:
Type in all cases: in vivo
male Swiss-Webster mice = test: abdominal irritant test (test for analgesia), acetylcholine bromide i.p.; conditions: 30 min before acetylcholine bromide 5.5 mg/kg i.p., observed 10 min, 10 mice per group
Experimental: The test that was employed is an abdominal irritant test that was carried out in accordance with the procedure set forth by Collier et al., Brit. J. Pharmacol., 32:295-310 (1968).
Each group of 10 male Swiss-Webster mice weighing 25-30 g received an oral injection of (a) distilled water or 1% Tween® 80; or (b) a previously established analgesic dose of either ibuprofen (30 mg/kg), ketoprofen (200 mg/kg), naproxen (30 mg/kg), piroxicam (3 mg/kg) or aspirin (150 mg/kg) or ([…]).
Thirty minutes after each injection, each mouse was injected i.p. ([…]) with an aqueous solution of acetylcholine bromide (5.5 mg/kg). The animals were then observed for 10 minutes for the presence or absence of a characteristic wave of contraction and elongation passing caudally along the abdominal wall, accompanied by a twisting of the trunk and followed by extension of the hind limbs. The percentage of analgesia was then calculated for each group based on the percentage of mice displaying no behavioral response.

male Swiss Webster mice [1] = test: Metrazol-induced convulsions (test for antiepileptic activity); conditions: 15 mg/kg subcutaneous, 15 min before metrazol 120 mg/kg s.c., 10 mice
Experimental: Three groups of 10 male Swiss Webster mice (25-30 g) received a subcutaneous injection of one of the following treatments: vehicle alone; phenytoin (15 mg/kg in 1% Tween® 80); halide-free glucosamine-phenytoin complex, ˜1:1 molar ratio, (15 mg/kg in water). Fifteen minutes later, each animal was injected subcutaneously with a convulsant dose of metrazol (120 mg/kg) and observed for 60 minutes for an entire-body convulsion.

male Swiss Webster mice [2] = test: Elevated Plus Maze (test for antianxiety activity); conditions: 0.50 mg/kg intraperitoneal, 30 min before test, 5 minute on maze, 6 mice
Experimental: The apparatus employed in this example consisted of two darkened enclose arms and two open arms, with a light beam focused on the open arms. The maze is elevated to a height of 55 cm. Mice have a desire to explore the apparatus, but the open, bristly lit arms present an aversive environment so that their preference is to remain in the enclosed arms.
Thirty minutes later, each animal was individually placed on the elevated maze for 5 minute and the time spent on the open (aversive) arms was recorded.

[3] = 30 mg/kg oral (complex: mg/kg of the complex)

COc1ccc2cc([C@H](C)C(=O)O)ccc2c1 [naproxen]
analgesia (percentage of mice displaying no behavioral response) (male Swiss-Webster mice; [3]): 70%

CC(=O)Oc1ccccc1C(=O)O [aspirin]
analgesia (percentage of mice displaying no behavioral response) (male Swiss-Webster mice; 0.50 mg/kg oral as printed (complex: mg/kg of the complex)): 70%

CC(C(=O)O)c1cccc(C(=O)c2ccccc2)c1 (stereo not shown) [ketoprofen]
analgesia (percentage of mice displaying no behavioral response) (male Swiss-Webster mice; 200 mg/kg oral (complex: mg/kg of the complex)): 56%

O=C1NC(=O)C(c2ccccc2)(c2ccccc2)N1 [Phenytoin, phenytoin]
No. of mice protected (no body seizures in 60 min.) (male Swiss Webster mice [1]): 1/10

CN1C(=O)CN=C(c2ccccc2)c2cc(Cl)ccc21 [Diazepam, diazepam]
Mean time (sec) ± s.e.m. in open arms (male Swiss Webster mice [2]): 30.3 ± 12.7 s

CC(C)Cc1ccc(C(C)C(=O)O)cc1 (stereo not shown) [ibuprofen]
analgesia (percentage of mice displaying no behavioral response) (male Swiss-Webster mice; [3]): 80%

CN1C(C(=O)Nc2ccccn2)=C(O)c2ccccc2S1(=O)=O [piroxicam]
analgesia (percentage of mice displaying no behavioral response) (male Swiss-Webster mice; 3 mg/kg oral (complex: mg/kg of the complex)): 70%

— patent publication US7662803B2, “Method for treating warm-blooded vertebrates with halide-free glucosamine-acidic drug complexes” (Gluconova, LLC, priority 2004, dated 2010)
